The test deals with CD2F1 mice, L1210 leukemia sc, survival T/C. Briefly: NCI In Vivo Anticancer Drug Screen. Data for tumor model L1210 Leukemia (subcutaneous) in CD2F1 (CDF1) mice. The conditions noted are these: endpoint: median survival time, higher = longer survival. In outline:
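Transplantable tumor-bearing mice were treated with compound; survival or tumor size measured and expressed as treated-group value (T) divided by vehicle-treated control value (C).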

The text below walks through data of PubChem BioAssay AID258 (DTP/NCI, 2004).

Where “and” joins values, the source holds several entries; their conditions need not be identical. Equal entries are not always repeated. Toxic doses and inconclusive results are not listed.

Take `CN(C)c1nc(N(C)C)nc(N(C)C)n1`: the T/C reads like this: (dose: 19.0 mg/kg/injection, schedule: Q01DX009 (ip), vehicle: saline with Tween-80) 97 % of control; (dose: 20.0 mg/kg/injection, schedule: Q01DX009 (ip), vehicle: saline with Tween-80) 106 % of control; (dose: 20.0 mg/kg/injection, schedule: Q01DX009 (sc), vehicle: saline) 107 % of control; (dose: 37.5 mg/kg/injection, schedule: Q01DX009 (ip), vehicle: saline with Tween-80) 91 % of control; (dose: 40.0 mg/kg/injection, schedule: Q01DX009 (ip), vehicle: saline with Tween-80) 102 % of control; (dose: 40.0 mg/kg/injection, schedule: Q01DX009 (sc), vehicle: saline) 100 % of control. Also, the T/C is 104 % of control (dose: 75.0 mg/kg/injection, schedule: Q01DX009 (ip), vehicle: saline with Tween-80); 106 % of control (dose: 80.0 mg/kg/injection, schedule: Q01DX009 (ip), vehicle: saline with Tween-80); 100 % of control (dose: 80.0 mg/kg/injection, schedule: Q01DX009 (sc), vehicle: saline); 91 % of control (dose: 150.0 mg/kg/injection, schedule: Q01DX009 (ip), vehicle: saline with Tween-80); 109 % of control and 110 % of control (dose: 160.0 mg/kg/injection, schedule: Q01DX009 (ip), vehicle: saline with Tween-80); 113 % of control (dose: 160.0 mg/kg/injection, schedule: Q01DX009 (sc), vehicle: saline). Also, the T/C (dose: 240.0 mg/kg/injection, schedule: Q01DX009 (ip), vehicle: saline with Tween-80) was 90 % of control.

Regarding `N=C(N)Cc1ccc(NC(=O)c2ccc(C(=O)Nc3ccc(CC(=N)N)cc3)cc2)cc1`, the T/C was 110 % of control (dose: 8.4 mg/kg/injection, schedule: Q01DX Z (sc), vehicle: water); 105 % of control (dose: 14.0 mg/kg/injection, schedule: Q01DX Z (sc), vehicle: water); 115 % of control (dose: 23.0 mg/kg/injection, schedule: Q01DX Z (sc), vehicle: water); 110 % of control (dose: 39.0 mg/kg/injection, schedule: Q01DX Z (sc), vehicle: water); 115 % of control (dose: 65.0 mg/kg/injection, schedule: Q01DX Z (sc), vehicle: water).

Regarding `OCC1OC(n2cnc3c(=S)nc[nH]c32)C(O)C1O` (centres undefined), the T/C is 177 % of control (dose: 130.0 mg/kg/injection, schedule: Q01DX Z (sc), vehicle: other); 183 % of control (dose: 216.0 mg/kg/injection, schedule: Q01DX Z (sc), vehicle: other); 177 % of control (dose: 360.0 mg/kg/injection, schedule: Q01DX Z (sc), vehicle: other).

In the case of `Nc1ccn([C@@H]2C=C(CO)[C@@H](O)[C@H]2O)c(=O)n1`, the T/C is 116 % of control (dose: 0.13 mg/kg/injection, schedule: Q03HX024 (ip), vehicle: saline); 112 % of control (dose: 0.19 mg/kg/injection, schedule: Q03HX024 (ip), vehicle: saline); 108 % of control (dose: 0.3 mg/kg/injection, schedule: Q06HX018 (ip), vehicle: saline); 100 % of control and 103 % of control (dose: 0.44 mg/kg/injection, schedule: Q01DX009 (ip), vehicle: saline); 119 % of control (dose: 0.44 mg/kg/injection, schedule: Q03HX016 (ip), vehicle: saline); 89 % of control (dose: 0.44 mg/kg/injection, schedule: Q03HX024 (ip), vehicle: saline). Besides, the T/C is 103 % of control and 113 % of control (2×) (dose: 0.45 mg/kg/injection, schedule: Q01DX009 (ip), vehicle: saline); 99 % of control (dose: 0.45 mg/kg/injection, schedule: Q01DX009 (sc), vehicle: saline); 118 % of control (dose: 0.45 mg/kg/injection, schedule: Q03HX008 (ip), vehicle: saline); 163 % of control (dose: 0.45 mg/kg/injection, schedule: Q06HX018 (ip), vehicle: saline); 119 % of control (dose: 0.67 mg/kg/injection, schedule: Q03HX008 (ip), vehicle: saline); 214 % of control (dose: 0.67 mg/kg/injection, schedule: Q06HX018 (ip), vehicle: saline). For the same molecule, the T/C runs as follows: (dose: 0.8 mg/kg/injection, schedule: Q01DX009 (ip), vehicle: saline) 157 % of control; (dose: 0.99 mg/kg/injection, schedule: Q03HX008 (ip), vehicle: saline) 120 % of control; (dose: 1.0 mg/kg/injection, schedule: Q01DX005 (iv), vehicle: saline) 151 % of control; (dose: 1.0 mg/kg/injection, schedule: Q01DX009 (sc), vehicle: saline) 180 % of control; (dose: 1.0 mg/kg/injection, schedule: Q03HX016 (ip), vehicle: saline) 161 % of control; (dose: 1.0 mg/kg/injection, schedule: Q06HX018 (ip), vehicle: saline) 108 % of control. For the same molecule, the T/C is 189 % of control (dose: 1.2 mg/kg/injection, schedule: Q01DX009 (ip), vehicle: saline); 97 % of control (dose: 1.49 mg/kg/injection, schedule: Q01DX005 (iv), vehicle: saline); 89 % of control (dose: 1.49 mg/kg/injection, schedule: Q03HX008 (ip), vehicle: saline); 168 % of control (dose: 1.5 mg/kg/injection, schedule: Q01DX005 (iv), vehicle: saline); 182 % of control (dose: 1.5 mg/kg/injection, schedule: Q01DX009 (sc), vehicle: saline); 162 % of control (dose: 2.2 mg/kg/injection, schedule: Q01DX005 (iv), vehicle: saline). In addition, the T/C runs as follows: (dose: 2.23 mg/kg/injection, schedule: Q01DX005 (iv), vehicle: saline) 89 % of control; (dose: 2.25 mg/kg/injection, schedule: Q01DX009 (sc), vehicle: saline) 97 % of control; (dose: 3.0 mg/kg/injection, schedule: Q03HX008 (ip), vehicle: saline) 154 % of control; (dose: 3.3 mg/kg/injection, schedule: Q01DX005 (iv), vehicle: saline) 90 % of control; (dose: 4.5 mg/kg/injection, schedule: Q03HX008 (ip), vehicle: saline) 113 % of control; (dose: 4.8 mg/kg/injection, schedule: Q01DX005 (iv), vehicle: saline) 86 % of control. The T/C was 118 % of control (dose: 5.0 mg/kg/injection, schedule: Q01DX001 (ip), vehicle: saline); 152 % of control (dose: 9.0 mg/kg/injection, schedule: Q03HX004 (iv), vehicle: saline); 123 % of control (dose: 10.7 mg/kg/injection, schedule: Q01DX001 (ip), vehicle: saline); 110 % of control and 123 % of control (dose: 11.2 mg/kg/injection, schedule: Q01DX001 (ip), vehicle: saline); 119 % of control (dose: 11.2 mg/kg/injection, schedule: Q01DX001 (iv), vehicle: saline); 100 % of control (dose: 16.9 mg/kg/injection, schedule: Q01DX001 (iv), vehicle: saline). Besides, the T/C reads like this: (dose: 36.0 mg/kg/injection, schedule: Q01DX001 (ip), vehicle: saline) 154 % of control; (dose: 37.9 mg/kg/injection, schedule: Q01DX001 (iv), vehicle: saline) 90 % of control; (dose: 54.0 mg/kg/injection, schedule: Q01DX001 (ip), vehicle: saline) 164 % of control; (dose: 54.0 mg/kg/injection, schedule: Q01DX001 (iv), vehicle: saline) 158 % of control; (dose: 56.8 mg/kg/injection, schedule: Q01DX001 (iv), vehicle: saline) 88 % of control; (dose: 81.0 mg/kg/injection, schedule: Q01DX001 (ip), vehicle: saline) 106 % of control. Besides, the T/C was 103 % of control (dose: 81.0 mg/kg/injection, schedule: Q01DX001 (iv), vehicle: saline); 91 % of control (dose: 121.0 mg/kg/injection, schedule: Q01DX001 (iv), vehicle: saline); 112 % of control (dose: 88.0 micrograms/kg/injection, schedule: Q03HX024 (ip), vehicle: saline); 166 % of control (dose: 200.0 micrograms/kg/injection, schedule: Q03HX024 (ip), vehicle: saline).

Turning to `Nc1ncnc2c1ccn2C1OC(CO)C(O)C1O` (centres undefined), the T/C reads like this: (dose: 0.25 mg/kg/injection, schedule: Q01DX009 (ip), vehicle: Klucel (hydroxypropylcellulose) (HPC)) 102 % of control; (dose: 0.5 mg/kg/injection, schedule: Q01DX009 (ip), vehicle: Klucel (hydroxypropylcellulose) (HPC)) 97 % of control; (dose: 1.0 mg/kg/injection, schedule: Q01DX009 (ip), vehicle: Klucel (hydroxypropylcellulose) (HPC)) 92 % of control; (dose: 2.0 mg/kg/injection, schedule: Q01DX009 (ip), vehicle: Klucel (hydroxypropylcellulose) (HPC)) 95 % of control; (dose: 4.0 mg/kg/injection, schedule: Q01DX009 (ip), vehicle: Klucel (hydroxypropylcellulose) (HPC)) 97 % of control; (dose: 8.0 mg/kg/injection, schedule: Q01DX009 (ip), vehicle: Klucel (hydroxypropylcellulose) (HPC)) 102 % of control. Also, the T/C (dose: 16.0 mg/kg/injection, schedule: Q01DX009 (ip), vehicle: Klucel (hydroxypropylcellulose) (HPC)) was 101 % of control.
